Measured values published in patent publication US9156829B2, “Cycloalkyl and heterocycloalkyl compounds as orexin receptor antagonists” (Takeda Pharmaceutical Company Limited, priority 2014, dated 2015).

Assays:
human orexin receptor 1 = human orexin receptor 1 (Homo sapiens (Human), UniProt O43613); experiment: Orexin antagonist activity, intracellular calcium FLIPR assay, RBL-2H3 cells expressing human orexin receptor 1; type: cell-based; conditions: RBL-2H3 cells stably expressing human orexin receptor 1; orexin-A at approx. 80% maximal response; compound added 15 minutes before; read-out: Human Orexin1R IC50
Sequence of human orexin receptor 1 (O43613 whole entry): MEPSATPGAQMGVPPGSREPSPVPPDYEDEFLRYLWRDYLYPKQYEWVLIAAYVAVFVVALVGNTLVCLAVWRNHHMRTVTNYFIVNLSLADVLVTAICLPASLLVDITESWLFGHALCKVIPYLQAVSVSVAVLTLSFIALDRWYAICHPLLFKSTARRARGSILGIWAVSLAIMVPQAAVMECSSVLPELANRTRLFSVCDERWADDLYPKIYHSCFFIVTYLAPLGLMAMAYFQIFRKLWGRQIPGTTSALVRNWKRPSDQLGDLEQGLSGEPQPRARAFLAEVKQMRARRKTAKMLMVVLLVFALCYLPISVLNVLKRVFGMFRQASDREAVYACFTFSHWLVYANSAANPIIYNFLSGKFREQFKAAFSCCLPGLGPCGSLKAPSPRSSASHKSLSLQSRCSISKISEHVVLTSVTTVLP

human orexin receptor 2 = human orexin receptor 2 (Homo sapiens (Human), UniProt O43614); experiment: Orexin antagonist activity, intracellular calcium FLIPR assay, RBL-2H3 cells expressing human orexin receptor 2; type: cell-based; conditions: RBL-2H3 cells stably expressing human orexin receptor 2; orexin-A at approx. 80% maximal response; compound added 15 minutes before; read-out: Human Orexin2R IC50
Sequence of human orexin receptor 2 (O43614 whole entry): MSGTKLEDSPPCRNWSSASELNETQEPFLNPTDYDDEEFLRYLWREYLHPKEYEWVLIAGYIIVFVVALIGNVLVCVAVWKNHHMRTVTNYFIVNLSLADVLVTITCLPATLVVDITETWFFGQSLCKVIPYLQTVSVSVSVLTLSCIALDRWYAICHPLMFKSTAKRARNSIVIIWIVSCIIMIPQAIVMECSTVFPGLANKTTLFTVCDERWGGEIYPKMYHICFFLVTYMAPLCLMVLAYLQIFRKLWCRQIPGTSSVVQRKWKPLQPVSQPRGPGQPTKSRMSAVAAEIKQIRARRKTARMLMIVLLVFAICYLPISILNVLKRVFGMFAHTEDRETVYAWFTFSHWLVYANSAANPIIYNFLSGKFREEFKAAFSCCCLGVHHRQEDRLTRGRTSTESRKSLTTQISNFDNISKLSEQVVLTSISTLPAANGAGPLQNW

Structure (SMILES) | IC50 (human orexin receptor 1) | IC50 (human orexin receptor 2)
CC1(Nc2ccc(C(F)(F)F)cn2)CCCC1NC(=O)c1ccccc1-n1nccn1 (stereo not shown) [Example 95, N-(2-Methyl-2-{[5-(trifluoromethyl)pyridin-2-yl]amino}cyclopentyl)-2-(2H-1,2,3-triazol-2-yl)benzamide] | 19 nM | 1070 nM
O=C(N[C@H]1CCC[C@@H]1Nc1cnc(C(F)(F)F)cn1)c1c(F)cccc1-n1cccn1 [Example 46, 2-Fluoro-6-(1H-pyrazol-1-yl)-N-[(1S,2S)-2-{[5-(trifluoromethyl)pyrazin-2-yl]amino}cyclopentyl]benzamide] | 172 nM | > 10000 nM
O=C(N[C@H]1CCC[C@@H]1Nc1ccc(C(F)(F)F)cn1)c1ncccc1-n1cccn1 [Example 101, 3-(1H-Pyrazol-1-yl)-N-[(1S,2S)-2-{[5-(trifluoromethyl)pyridin-2-yl]amino}cyclopentyl]pyridine-2-carboxamide] | 310 nM | > 10000 nM
O=C(N[C@H]1CCC[C@@H]1Nc1ncc(C(F)(F)F)cc1Br)c1ccccc1-n1nccn1 [Example 107, N-[(1S,2S)-2-{[3-Bromo-5-(trifluoromethyl)pyridin-2-yl]amino}cyclopentyl]-2-(2H-1,2,3-triazol-2-yl)benzamide] | 27 nM | > 10000 nM
O=C(N[C@H]1CCC[C@@H]1Nc1cnc(C(F)(F)F)cn1)c1cc(C(F)(F)F)ccc1-n1ccnn1 [Example 54, 2-(1H-1,2,3-Triazol-1-yl)-5-(trifluoromethyl)-N-[(1S,2S)-2-{[5-(trifluoromethyl)pyrazin-2-yl]amino}cyclopentyl]benzamide] | 950 nM | > 10000 nM
C[C@]1(Nc2cnc(C(F)(F)F)cn2)CCC[C@@H]1NC(=O)c1cc(Cl)ccc1-n1nccn1 [Example 92, 5-Chloro-N-[(1S,2S)-2-methyl-2-{[5-(trifluoromethyl)pyrazin-2-yl]amino}cyclopentyl]-2-(2H-1,2,3-triazol-2-yl)benzamide] | 8 nM | 5570 nM
O=C(N[C@H]1CCC[C@@H]1Nc1cnc(C(F)(F)F)cn1)c1cc(F)ccc1-n1nccn1 [Example 36, 5-Fluoro-2-(2H-1,2,3-triazol-2-yl)-N-[(1S,2S)-2-{[5-(trifluoromethyl)pyrazin-2-yl]amino}cyclopentyl]benzamide] | 207 nM | > 10000 nM
O=C(NC1CCCC1Cc1ccc(C(F)(F)F)cn1)c1ccccc1-n1nccn1 (single isomer, unassigned) [Example 25, 2-(2H-1,2,3-Triazol-2-yl)-N-(2-{[5-(trifluoromethyl)pyridin-2-yl]methyl}cyclopentyl)benzamide] | 472 nM | > 10000 nM
O=C(N[C@H]1CCC[C@@H]1Nc1ncc(C(F)(F)F)cc1Cl)c1ncccc1-n1nccn1 [Example 122, N-[(1S,2S)-2-{[3-Chloro-5-(trifluoromethyl)pyridin-2-yl]amino}cyclopentyl]-3-(2H-1,2,3-triazol-2-yl)pyridine-2-carboxamide] | 32 nM | > 10000 nM
O=C(N[C@H]1CCC[C@@H]1Nc1ncc(C(F)(F)F)nc1C1CC1)c1ccccc1-n1nccn1 [Example 109, N-[(1S,2S)-2-{[3-Cyclopropyl-5-(trifluoromethyl)pyrazin-2-yl]amino}cyclopentyl]-2-(2H-1,2,3-triazol-2-yl)benzamide] | 21 nM | > 10000 nM
COc1cccc(F)c1C(=O)N[C@H]1CCC[C@@H]1Nc1ccc(C(F)(F)F)cn1 [Example 71, 2-Fluoro-6-methoxy-N-[(1S,2S)-2-{[5-(trifluoromethyl)pyridin-2-yl]amino}cyclopentyl]benzamide] | 722 nM | 7600 nM
COc1cc(Br)cnc1N[C@H]1CCC[C@@H]1NC(=O)c1ccccc1-n1nccn1 [Example 119, N-[(1S,2S)-2-[(5-Bromo-3-methoxypyridin-2-yl)amino]cyclopentyl]-2-(2H-1,2,3-triazol-2-yl)benzamide] | 22 nM | 7800 nM
Cc1ccc(-n2cccn2)c(C(=O)N[C@H]2CCC[C@@H]2Nc2cnc(C(F)(F)F)cn2)c1 [Example 48, 5-Methyl-2-(1H-pyrazol-1-yl)-N-[(1S,2S)-2-{[5-(trifluoromethyl)pyrazin-2-yl]amino}cyclopentyl]benzamide] | 88 nM | > 10000 nM
O=C(N[C@H]1CCC[C@@H]1Nc1ccc(C(F)(F)F)cn1)c1ncccc1-n1nccn1 [Example 100, 3-(2H-1,2,3-Triazol-2-yl)-N-[(1S,2S)-2-{[5-(trifluoromethyl)pyridin-2-yl]amino}cyclopentyl]pyridine-2-carboxamide] | 128 nM | > 10000 nM
O=C(N[C@H]1CCC[C@@H]1Nc1ccc(C(F)(F)F)cn1)c1cccc(F)c1-n1nccn1 [Example 98, 3-Fluoro-2-(2H-1,2,3-triazol-2-yl)-N-[(1S,2S)-2-{[5-(trifluoromethyl)pyridin-2-yl]amino}cyclopentyl]benzamide] | 160 nM | > 10000 nM

Other lines, results leading:

IC50 (human orexin receptor 1) | IC50 (human orexin receptor 2) | Structure (SMILES)
29 nM | > 10000 nM | CCc1nc(C(F)(F)F)cnc1N[C@H]1CCC[C@@H]1NC(=O)c1ccccc1-c1ncccn1 [Example 151, N-[(1S,2S)-2-{[3-Ethyl-5-(trifluoromethyl)pyrazin-2-yl]amino}cyclopentyl]-2-(pyrimidin-2-yl)benzamide]
19 nM | > 10000 nM | O=C(N[C@H]1CCC[C@@H]1Nc1ncc(C(F)(F)F)cc1Cl)c1ncccc1-c1ncccn1 [Example 148, N-[(1S,2S)-2-{[3-Chloro-5-(trifluoromethyl)pyridin-2-yl]amino}cyclopentyl]-3-(pyrimidin-2-yl)pyridine-2-carboxamide]
43 nM | > 10000 nM | CCc1nc(C(F)(F)F)cnc1N[C@H]1CCC[C@@H]1NC(=O)c1ncccc1-c1ncccn1 [Example 150, N-[(1S,2S)-2-{[3-Ethyl-5-(trifluoromethyl)pyrazin-2-yl]amino}cyclopentyl]-3-(pyrimidin-2-yl)pyridine-2-carboxamide]
119 nM | > 10000 nM | O=C(NC1CC(F)(F)CC1Nc1cnc(C(F)(F)F)cn1)c1ccccc1-n1nccn1 (stereo not shown) [Example 126, N-(4,4-Difluoro-2-{[5-(trifluoromethyl)pyrazin-2-yl]amino}cyclopentyl)-2-(2H-1,2,3-triazol-2-yl)benzamide]
25 nM | > 10000 nM | CCc1nc(C(F)(F)F)cnc1N[C@H]1CCC[C@@H]1NC(=O)c1ccccc1-c1nc(C)no1 [Example 149, N-[(1S,2S)-2-{[3-Ethyl-5-(trifluoromethyl)pyrazin-2-yl]amino}cyclopentyl]-2-(3-methyl-1,2,4-oxadiazol-5-yl)benzamide]
32 nM | > 10000 nM | O=C(N[C@H]1CCC[C@@H]1Nc1ncc(C(F)(F)F)cc1F)c1cc(F)ccc1-c1ncccn1 [Example 139, 5-Fluoro-N-[(1S,2S)-2-{[3-fluoro-5-(trifluoromethyl)pyridin-2-yl]amino}cyclopentyl]-2-(pyrimidin-2-yl)benzamide]
13 nM | > 10000 nM | C[C@]1(Nc2cnc(C(F)(F)F)cn2)CCC[C@@H]1NC(=O)c1ncccc1-c1ncccn1 [Example 144, N-[(1S,2S)-2-Methyl-2-{[5-(trifluoromethyl)pyrazin-2-yl]amino}cyclopentyl]-3-(pyrimidin-2-yl)pyridine-2-carboxamide]
39 nM | > 10000 nM | O=C(N[C@H]1CC(F)(F)C[C@@H]1Nc1ccc(OC(F)(F)F)cn1)c1ccccc1-n1nccn1 [Example 131, N-[(1S,2S)-4,4-Difluoro-2-{[5-(trifluoromethoxy)pyridin-2-yl]amino}cyclopentyl]-2-(2H-1,2,3-triazol-2-yl)benzamide]
